From patent publication US9416115B2, “Fused heterocyclic compounds as ion channel modulators” (Gilead Sciences, Inc., priority 2013, dated 2016)

Assays:
[1] = biological target: wild-type human cardiac sodium channel, hNav1.5 (Homo sapiens, UniProt Q14524); assay: Late INa screening assay (QPatch whole cell patch clamp, Tefluthrin-induced late current); format: cell-based; conditions: HEK293 hNav1.5, percent block of late INa
How it was run: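 HEK293 cells stably expressing hNav1.5 without beta subunits were whole-cell patch clamped at 23-25 °C, stepping from −120 to −20 mV for 250 ms at 0.1 Hz. Late current (240–265 ms) was induced with 10 μM Tefluthrin, and compounds were added typically at 0.3 or 1 μM. Percent block was taken against 0 Na baseline with rundown correction.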

[2] = biological target: T1, hNaV1.2 (SCN2A) (Homo sapiens, UniProt Q99250); assay: Use-dependent inhibition of the CNS Nav1.2 sodium channel; format: cell-based; conditions: use-dependent block, 25 Hz, pulse 20, read-out: Nav1.2 UDB 25 Hz 10 uM
T1 construct: expressed in transfected cells
Method: HEK-293 cells stably expressing wild-type (WT) hNaV1.2 (SCN2A NCBI # NM_021007.2, SCN1B NCBI # NM_001037.4, SCN2B NCBI # NM_004588.2) were used to record INa. Cells are maintained with standard tissue culture procedures and stable channel expression is maintained with 800 ug/mL G418 and 3 ug/mL Puromycin in the culture medium. Unless otherwise noted, all reagents are purchased from Sigma-Aldrich (St Louis, Mo., U.S.A.).
Assays measuring Use-Dependent Block (UDB) of Nav1.2 are performed on an automated electrophysiology platform, QPatch 16X or QPatch HT (Sophion Bioscience, Copenhagen, Denmark), using the whole cell patch clamp technique to measure currents through the cell membrane. Series resistance compensation is set to 100% and series resistance and whole-cell compensation are performed automatically. Currents stored in the Sophion Bioscience Oracle database (Sophion Bioscience, Copenhagen, Denmark). Analysis is performed using QPatch Assay software and data are compiled in Excel 2010 (Microsoft, Seattle, Wash., U.S.A.).
The internal (pipette) solution consists of (in mM) 105 CsF, 10 NaF, 20 CsCl, 2 EGTA, 10 HEPES, 10 Dextrose with a pH of 7.35 and osmolarity of 300 mOsmol/kg. The external (bath) solution contains in (mM): 145 NaCl, 4 KCl, 1.8 CaCl2, 1 MgCl2, 10 dextrose, 10 HEPES, with a pH of 7.35 and osmolarity of 310 mOsmol/kg. Experiments are carried out at 23-25° C.
Compound stocks are routinely made by the Gilead Sample Bank in vials to 10 mM in dimethyl sulfoxide (DMSO). In some cases, when compounds are not soluble in DMSO, they are made in 100% ethanol. Stocks are sonicated as necessary. […]
Cells are allowed to stabilize for 10 min after establishment of the whole-cell configuration before current is measured. The test compound is applied 2 times at 60 second intervals. After the second compound addition, a 200 second wait period was imposed to allow for equilibration. Leak currents are subtracted by using an online P/4 procedure and all currents are low-pass Bessel filtered at 5 kHz and digitized at […].
Results are presented as mean percentage inhibition.
Use-dependent block of Nav1.2 peak current is measured during pulse number 20 of a voltage pulse train (0 mV, 20 ms, 20 pulses, 25 Hz) from a holding potential of −120 mV.
Currents are normalized to the peak current recorded in response to the first pulse in each frequency train. The voltage protocol for UDB was performed in the absence and presence of compound and percentage inhibition was calculated with respect to the compound free condition.

T1 sequence (Q99250 whole entry): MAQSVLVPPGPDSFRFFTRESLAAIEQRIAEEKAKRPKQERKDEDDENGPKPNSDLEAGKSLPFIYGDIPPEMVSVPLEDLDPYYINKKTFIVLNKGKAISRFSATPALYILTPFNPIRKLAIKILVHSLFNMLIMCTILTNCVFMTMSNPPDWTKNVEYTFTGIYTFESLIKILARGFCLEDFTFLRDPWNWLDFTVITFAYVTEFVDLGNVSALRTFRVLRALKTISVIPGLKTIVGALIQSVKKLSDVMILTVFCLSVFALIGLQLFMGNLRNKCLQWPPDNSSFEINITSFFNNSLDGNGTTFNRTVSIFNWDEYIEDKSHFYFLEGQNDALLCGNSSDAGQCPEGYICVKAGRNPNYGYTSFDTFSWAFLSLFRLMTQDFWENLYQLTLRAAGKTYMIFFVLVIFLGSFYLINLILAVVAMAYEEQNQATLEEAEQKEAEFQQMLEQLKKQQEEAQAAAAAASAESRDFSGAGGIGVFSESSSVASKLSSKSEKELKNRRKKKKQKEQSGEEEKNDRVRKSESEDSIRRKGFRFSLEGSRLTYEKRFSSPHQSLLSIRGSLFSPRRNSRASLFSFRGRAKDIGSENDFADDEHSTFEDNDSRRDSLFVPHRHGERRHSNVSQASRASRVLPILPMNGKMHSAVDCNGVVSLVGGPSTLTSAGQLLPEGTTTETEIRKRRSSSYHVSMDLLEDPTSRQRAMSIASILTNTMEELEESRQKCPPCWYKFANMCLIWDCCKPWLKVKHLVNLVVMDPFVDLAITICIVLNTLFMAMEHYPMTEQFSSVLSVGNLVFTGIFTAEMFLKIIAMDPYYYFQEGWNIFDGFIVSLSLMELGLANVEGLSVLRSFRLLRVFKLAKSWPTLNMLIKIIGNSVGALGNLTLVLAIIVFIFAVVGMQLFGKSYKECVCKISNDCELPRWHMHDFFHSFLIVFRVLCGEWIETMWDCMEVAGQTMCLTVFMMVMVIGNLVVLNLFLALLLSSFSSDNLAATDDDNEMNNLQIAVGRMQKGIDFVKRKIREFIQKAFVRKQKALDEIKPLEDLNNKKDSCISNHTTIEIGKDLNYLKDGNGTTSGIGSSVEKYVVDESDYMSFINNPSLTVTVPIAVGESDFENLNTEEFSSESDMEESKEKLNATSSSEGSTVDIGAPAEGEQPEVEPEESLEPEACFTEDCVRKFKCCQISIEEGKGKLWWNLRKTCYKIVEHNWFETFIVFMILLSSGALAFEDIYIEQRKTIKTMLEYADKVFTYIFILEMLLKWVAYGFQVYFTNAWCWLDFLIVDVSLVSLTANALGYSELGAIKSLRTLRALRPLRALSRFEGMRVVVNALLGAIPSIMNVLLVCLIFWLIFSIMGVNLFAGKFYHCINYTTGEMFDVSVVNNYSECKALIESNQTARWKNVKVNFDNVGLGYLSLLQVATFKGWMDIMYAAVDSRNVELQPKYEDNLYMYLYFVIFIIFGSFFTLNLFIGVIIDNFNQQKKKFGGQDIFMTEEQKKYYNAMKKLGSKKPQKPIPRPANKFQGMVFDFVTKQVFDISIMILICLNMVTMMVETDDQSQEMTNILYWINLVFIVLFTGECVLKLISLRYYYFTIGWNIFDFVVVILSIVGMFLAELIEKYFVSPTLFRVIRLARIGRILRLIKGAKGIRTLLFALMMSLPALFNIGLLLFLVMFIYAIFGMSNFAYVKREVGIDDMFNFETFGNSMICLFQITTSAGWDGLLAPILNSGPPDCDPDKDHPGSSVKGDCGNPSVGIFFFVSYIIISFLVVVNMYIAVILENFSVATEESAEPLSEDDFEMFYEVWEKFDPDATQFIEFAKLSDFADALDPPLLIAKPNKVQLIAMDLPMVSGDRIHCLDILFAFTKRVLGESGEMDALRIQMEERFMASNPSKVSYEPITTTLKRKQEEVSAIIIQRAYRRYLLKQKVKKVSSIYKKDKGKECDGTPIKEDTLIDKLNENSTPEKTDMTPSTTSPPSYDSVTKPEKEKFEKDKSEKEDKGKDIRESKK
T1 sequence (Q07699 19-218 partner): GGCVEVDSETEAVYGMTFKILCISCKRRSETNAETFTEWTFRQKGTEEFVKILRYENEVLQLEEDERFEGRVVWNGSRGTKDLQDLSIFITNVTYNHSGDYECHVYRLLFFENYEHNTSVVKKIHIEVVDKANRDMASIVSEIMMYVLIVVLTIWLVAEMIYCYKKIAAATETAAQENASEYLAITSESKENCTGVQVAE
T1 sequence (O60939 30-215 partner): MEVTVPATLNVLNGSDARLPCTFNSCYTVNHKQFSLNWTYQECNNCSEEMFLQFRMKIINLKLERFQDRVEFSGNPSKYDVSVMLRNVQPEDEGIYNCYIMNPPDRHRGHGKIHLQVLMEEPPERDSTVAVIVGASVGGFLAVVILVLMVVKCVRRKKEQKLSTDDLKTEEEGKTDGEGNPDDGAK
Sequence of wild-type human cardiac sodium channel, hNav1.5 (Q14524 whole entry): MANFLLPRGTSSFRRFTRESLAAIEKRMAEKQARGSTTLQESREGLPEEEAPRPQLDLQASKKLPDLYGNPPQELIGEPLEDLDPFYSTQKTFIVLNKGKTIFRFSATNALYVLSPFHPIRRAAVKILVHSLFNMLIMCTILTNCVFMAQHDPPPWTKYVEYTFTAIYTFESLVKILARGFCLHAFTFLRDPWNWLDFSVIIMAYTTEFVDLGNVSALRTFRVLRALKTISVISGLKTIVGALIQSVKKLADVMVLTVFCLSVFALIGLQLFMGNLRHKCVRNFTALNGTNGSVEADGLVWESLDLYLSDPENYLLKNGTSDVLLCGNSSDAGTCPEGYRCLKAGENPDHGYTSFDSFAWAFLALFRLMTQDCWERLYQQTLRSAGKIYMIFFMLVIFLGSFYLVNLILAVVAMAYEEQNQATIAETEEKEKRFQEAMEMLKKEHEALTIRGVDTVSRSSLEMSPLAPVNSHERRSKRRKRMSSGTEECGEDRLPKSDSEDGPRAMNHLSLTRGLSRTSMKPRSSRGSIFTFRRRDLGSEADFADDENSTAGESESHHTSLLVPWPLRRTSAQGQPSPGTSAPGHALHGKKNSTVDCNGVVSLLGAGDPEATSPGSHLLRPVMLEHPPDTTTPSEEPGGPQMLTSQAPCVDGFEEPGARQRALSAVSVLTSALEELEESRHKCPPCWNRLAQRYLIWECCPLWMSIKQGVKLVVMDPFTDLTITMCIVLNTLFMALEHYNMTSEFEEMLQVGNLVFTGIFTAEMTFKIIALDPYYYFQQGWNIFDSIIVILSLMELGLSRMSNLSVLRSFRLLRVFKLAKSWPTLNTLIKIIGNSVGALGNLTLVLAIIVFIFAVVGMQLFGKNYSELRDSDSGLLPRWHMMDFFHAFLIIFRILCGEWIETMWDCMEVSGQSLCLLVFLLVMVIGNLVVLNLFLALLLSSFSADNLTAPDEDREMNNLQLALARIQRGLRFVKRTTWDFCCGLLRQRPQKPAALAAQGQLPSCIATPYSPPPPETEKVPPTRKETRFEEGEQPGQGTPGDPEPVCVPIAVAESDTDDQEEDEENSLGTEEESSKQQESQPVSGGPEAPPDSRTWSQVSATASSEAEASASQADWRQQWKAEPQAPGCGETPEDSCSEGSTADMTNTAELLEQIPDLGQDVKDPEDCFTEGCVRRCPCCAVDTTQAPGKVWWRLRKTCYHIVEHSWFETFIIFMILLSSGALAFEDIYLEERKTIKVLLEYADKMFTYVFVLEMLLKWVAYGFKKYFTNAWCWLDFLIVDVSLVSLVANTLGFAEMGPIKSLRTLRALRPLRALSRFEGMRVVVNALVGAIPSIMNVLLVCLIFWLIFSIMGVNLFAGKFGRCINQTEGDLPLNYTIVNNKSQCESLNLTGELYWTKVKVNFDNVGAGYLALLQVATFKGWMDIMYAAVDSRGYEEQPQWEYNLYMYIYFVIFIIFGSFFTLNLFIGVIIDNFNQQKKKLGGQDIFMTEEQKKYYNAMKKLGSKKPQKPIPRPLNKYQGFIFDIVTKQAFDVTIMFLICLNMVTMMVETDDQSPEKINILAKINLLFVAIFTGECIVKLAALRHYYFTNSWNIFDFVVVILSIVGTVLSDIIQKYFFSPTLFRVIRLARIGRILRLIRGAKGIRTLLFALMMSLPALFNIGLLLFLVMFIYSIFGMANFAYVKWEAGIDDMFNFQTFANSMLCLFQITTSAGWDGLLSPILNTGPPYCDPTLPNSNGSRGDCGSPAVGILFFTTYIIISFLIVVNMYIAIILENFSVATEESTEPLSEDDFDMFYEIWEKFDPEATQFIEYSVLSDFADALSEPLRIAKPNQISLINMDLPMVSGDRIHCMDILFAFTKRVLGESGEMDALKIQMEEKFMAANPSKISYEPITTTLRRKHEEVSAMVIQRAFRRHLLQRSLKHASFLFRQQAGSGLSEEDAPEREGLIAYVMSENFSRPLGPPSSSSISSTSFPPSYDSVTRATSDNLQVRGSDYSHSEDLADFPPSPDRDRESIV

| SMILES | inhibition at 0.3 µM [1] [%] | inhibition at 1 µM [1] [%] | inhibition at 10 µM [2] [%] |
| --- | --- | --- | --- |
| C[C@@H](N)COc1noc2ccc(-c3ccc(OC(F)(F)F)cc3)cc12 [Example 117, (R)-1-((5-(4-(trifluoromethoxy)phenyl)benzo[d]isoxazol-3-yl)oxy)propan-2-amine] | 39.4 | 78.1 | 88.4 |
| CC(C)[C@H](N)COc1noc2ccc(-c3ccc(OC(F)(F)F)cc3)cc12 [Example 118, (S)-3-methyl-1-((5-(4-(trifluoromethoxy)phenyl)benzo[d]isoxazol-3-yl)oxy)butan-2-amine] | 22.5 | 66.1 | 90.4 |
| C[C@H](COc1noc2ccc(-c3ccc(OC(F)(F)F)cc3)cc12)N1CCCC1=O [Example 119, (R)-1-(1-((5-(4-(trifluoromethoxy)phenyl)benzo[d]isoxazol-3-yl)oxy)propan-2-yl)pyrrolidin-2-one] |  | 51.2 | 52.3 |
| CC(C)[C@@H](COc1noc2ccc(-c3ccc(OC(F)(F)F)cc3)cc12)N1CCCC1=O [Example 120, (S)-1-(3-methyl-1-((5-(4-(trifluoromethoxy)phenyl)benzo[d]isoxazol-3-yl)oxy)butan-2-yl)pyrrolidin-2-one] | 35.8 | 58.2 | 74.4 |
| O=C(COc1noc2ccc(-c3ccc(OC(F)(F)F)cc3)cc12)N1CCCC1 [Example 121, 1-(pyrrolidin-1-yl)-2-((5-(4-(trifluoromethoxy)phenyl)benzo[d]isoxazol-3-yl)oxy)ethan-1-one] | 39 | 77.7 | 57.8 |
| CC(C)NC(=O)COc1noc2ccc(-c3ccc(OC(F)(F)F)cc3)cc12 [Example 122, N-isopropyl-2-((5-(4-(trifluoromethoxy)phenyl)benzo[d]isoxazol-3-yl)oxy)acetamide] |  | 41.3 | 29.7 |
| FC(F)(F)Oc1ccc(-c2ccc3onc(OCCNc4ncccn4)c3c2)cc1 [Example 123, N-(2-((5-(4-(trifluoromethoxy)phenyl)benzo[d]isoxazol-3-yl)oxy)ethyl)pyrimidin-2-amine] |  | 36.3 | < 5 |
| FC(F)(F)Oc1ccc(-c2ccc3onc(Oc4ncccn4)c3c2)cc1 [Example 124, 3-(pyrimidin-2-yloxy)-5-(4-(trifluoromethoxy)phenyl)benzo[d]isoxazole] |  | 53.7 | 44.9 |
| FC(F)(F)Oc1ccc(-c2ccc3onc(NCc4ncccn4)c3c2)cc1 [Example 126, N-(pyrimidin-2-ylmethyl)-5-(4-(trifluoromethoxy)phenyl)benzo[d]isoxazol-3-amine] |  | 50 | < 5 |
| CN1CCN(c2noc3ccc(-c4ccc(OC(F)(F)F)cc4)cc23)CC1 [Example 127, 3-(4-methylpiperazin-1-yl)-5-(4-(trifluoromethoxy)phenyl)benzo[d]isoxazole] |  | 37.4 | 76.5 |
| FC(F)(F)Oc1ccc(-c2ccc3onc(NCC4CC4)c3c2)cc1 [Example 128, N-(cyclopropylmethyl)-5-(4-(trifluoromethoxy)phenyl)benzo[d]isoxazol-3-amine] |  | 42 | < 5 |
| FC(F)(F)Oc1ccc(-c2ccc3onc(N4CCOCC4)c3c2)cc1 [Example 130, 3-morpholino-5-(4-(trifluoromethoxy)phenyl)benzo[d]isoxazole] |  | 38.3 | < 5 |
| FC(F)(F)Oc1ccc(-c2ccc3onc(-n4ccnc4)c3c2)cc1 [Example 132, 3-(1H-imidazol-1-yl)-5-(4-(trifluoromethoxy)phenyl)benzo[d]isoxazole] |  | 40.5 | < 5 |
| CN(C)c1noc2ccc(-c3ccc(OC(F)(F)F)cc3)cc12 [Example 133, N,N-dimethyl-5-(4-(trifluoromethoxy)phenyl)benzo[d]isoxazol-3-amine] |  | 45.8 | 29.2 |
